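Results reflect a 48-hour exposure of cells in 96-well plates to compound at five concentrations. Here, GI50 denotes the concentration required for 50% inhibition of growth.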 Activity calls are given as the source filed them. No stated cut-off is given here; in the data, active = GI50 up to about 1.1 µM and inactive = higher.
Legend:
Assay in all cases: DTP human tumour cell line panel, 48 h
NCI-H226 = test system: NCI-H226
MDA-MB-231 = test system: MDA-MB-231
SN12C = test system: SN12C
Malme-3M = test system: Malme-3M
DU-145 = test system: DU-145
NCI/ADR-RES = test system: NCI/ADR-RES
NCI-H23 = test system: NCI-H23
OVCAR-5 = test system: OVCAR-5
SK-OV-3 = test system: SK-OV-3
EKVX = test system: EKVX
HOP-62 = test system: HOP-62
SW-620 = test system: SW-620
SNB-19 = test system: SNB-19
HCT-116 = test system: HCT-116
HL-60 = test system: HL-60
K562 = test system: K562
OVCAR-4 = test system: OVCAR-4
RPMI-8226 = test system: RPMI-8226
RXF 393 = test system: RXF 393
CCRF-CEM = test system: CCRF-CEM

Row | Structure (SMILES) | GI50 (NCI-H226) | GI50 (MDA-MB-231) | GI50 (SN12C) | GI50 (Malme-3M) | GI50 (DU-145) | GI50 (NCI/ADR-RES) | GI50 (NCI-H23) | GI50 (OVCAR-5) | GI50 (SK-OV-3) | GI50 (EKVX) | GI50 (HOP-62) | GI50 (SW-620) | GI50 (SNB-19) | GI50 (HCT-116) | GI50 (HL-60) | GI50 (K562) | GI50 (OVCAR-4) | GI50 (RPMI-8226) | GI50 (RXF 393) | GI50 (CCRF-CEM)
1 | CN(C)CCCc1cccnc1 | > 100 µM (inactive) | > 100 µM (inactive) | > 100 µM (inactive) | > 100 µM (inactive) | > 100 µM (inactive) | > 100 µM (inactive) | > 100 µM (inactive) | > 100 µM (inactive) | > 100 µM (inactive) | > 100 µM (inactive) | > 100 µM (inactive) | > 100 µM (inactive) | > 100 µM (inactive) | > 100 µM (inactive) | > 100 µM (inactive) | > 100 µM (inactive) | > 100 µM (inactive) | > 100 µM (inactive) | > 100 µM (inactive) | > 100 µM (inactive)
2 | N=C(N)NS(=O)(=O)c1ccc(NC(=O)c2ccc3nc4ccccc4c(Nc4ccc(S(=O)(=O)N=C(N)N)cc4)c3c2)cc1 | > 100 µM (inactive) | > 100 µM (inactive) | > 100 µM (inactive) | > 100 µM (inactive) | > 100 µM (inactive) | > 100 µM (inactive) | > 100 µM (inactive) | > 100 µM (inactive) | > 100 µM (inactive) | > 100 µM (inactive) | > 100 µM (inactive) | > 100 µM (inactive) | > 100 µM (inactive) | > 100 µM (inactive) | > 100 µM (inactive) | > 100 µM (inactive) | > 100 µM (inactive) | > 100 µM (inactive) | > 100 µM (inactive) | > 100 µM (inactive)
3 | CC(C)(C)c1cc(C(C)(C)C)c2c(c1O)OC(=O)CS2 | 8.34 µM (inactive) | 16.2 µM (inactive) | 5.79 µM (inactive) | 20.8 µM (inactive) | 15.7 µM (inactive) | 4.55 µM (inactive) | 4.15 µM (inactive) | 5.85 µM (inactive) | 13.4 µM (inactive) | 4.31 µM (inactive) | 7.13 µM (inactive) | 6.52 µM (inactive) | 5.2 µM (inactive) | 3.6 µM (inactive) | 3.62 µM (inactive) | 3.16 µM (inactive) | 5.28 µM (inactive) | 21.1 µM (inactive) | 3.61 µM (inactive) | 4.17 µM (inactive)
4 | NC1N=C(c2ccc(Cl)cc2)C2=C(N1)c1ccccc1CC2 (stereo not given) | 14.4 µM (inactive) | 10.5 µM (inactive) | 19.9 µM (inactive) | 10.3 µM (inactive) | 52.4 µM (inactive) | 13 µM (inactive) | 30 µM (inactive) | 51.1 µM (inactive) | > 100 µM (inactive) | 14.2 µM (inactive) | > 40.6 µM (inactive) | 10.8 µM (inactive) | > 68.5 µM (inactive) | 8.39 µM (inactive) | 2.81 µM (inactive) | 3.48 µM (inactive) | 13.4 µM (inactive) | 2.66 µM (inactive) | 7.96 µM (inactive) | 3.93 µM (inactive)
5 | COc1cc2c(cc1OC)CC(=O)c1cc(OC)c(OC)cc1/C=C\2 | > 12.5 µM (inactive) | > 12.5 µM (inactive) | > 12.5 µM (inactive) | 2.93 µM (inactive) | > 12.5 µM (inactive) | > 12.5 µM (inactive) | > 12.5 µM (inactive) | > 12.5 µM (inactive) | > 12.5 µM (inactive) | > 12.5 µM (inactive) | > 12.5 µM (inactive) | 6.37 µM (inactive) | > 12.5 µM (inactive) | > 12.5 µM (inactive) | 2.24 µM (inactive) | 3.45 µM (inactive) | > 12.5 µM (inactive) | > 12.5 µM (inactive) | > 12.5 µM (inactive) | > 12.5 µM (inactive)
6 | CC1=CC(O)C(C(O)(C(F)(F)F)C(F)(F)F)C(C)(C)C1 (stereo not given) | > 10 µM (inactive) | > 10 µM (inactive) | > 10 µM (inactive) | > 10 µM (inactive) | > 10 µM (inactive) | > 10 µM (inactive) | > 10 µM (inactive) | > 10 µM (inactive) | > 10 µM (inactive) | > 10 µM (inactive) | > 10 µM (inactive) | > 10 µM (inactive) | > 10 µM (inactive) | > 10 µM (inactive) | > 10 µM (inactive) | > 10 µM (inactive) | > 10 µM (inactive) | > 10 µM (inactive) | > 10 µM (inactive) | > 10 µM (inactive)
7 | O=C(O)CN1CCNCCN(CC(=O)O)CC1 | 9.93 µM (inactive) | > 34 µM (inactive) | > 100 µM (inactive) | 2.35 µM (inactive) | > 100 µM (inactive) | 2.44 µM (inactive) | 3.25 µM (inactive) | > 22.1 µM (inactive) | 38.4 µM (inactive) | 12.5 µM (inactive) | > 27.7 µM (inactive) | 3.4 µM (inactive) | > 100 µM (inactive) | 3.36 µM (inactive) | 3.08 µM (inactive) | 3.76 µM (inactive) | 38.8 µM (inactive) | 7.23 µM (inactive) | 13.6 µM (inactive) | 5.47 µM (inactive)
8 | Cc1cccc(/N=N/c2ccc(O)c(CN(C)C)c2)c1 | 30.9 µM (inactive) | 5.6 µM (inactive) | 62.4 µM (inactive) | 10 µM (inactive) | > 10 µM (inactive) | 16.9 µM (inactive) | 57.8 µM (inactive) | 33.8 µM (inactive) | 41.7 µM (inactive) | 20.3 µM (inactive) | 11.1 µM (inactive) | 18.2 µM (inactive) | 41.9 µM (inactive) | 20.5 µM (inactive) | 23.4 µM (inactive) | 3.33 µM (inactive) | 55.3 µM (inactive) | 32 µM (inactive) | 29 µM (inactive) | 0.0753 µM (active)
9 | CCCCCCCCCCCCCCCCCCNc1ccn(C2OC(COP(=O)(O)OCC3OC(n4cc(C)c(=O)[nH]c4=O)CC3F)C(O)C2O)c(=O)n1 (stereo not given) | 37.8 µM (inactive) | 10.7 µM (inactive) | 7.87 µM (inactive) | 15 µM (inactive) | 11.4 µM (inactive) | 30.9 µM (inactive) | 8.65 µM (inactive) | 2.56 µM (inactive) | 8.63 µM (inactive) | 10.3 µM (inactive) | 9.75 µM (inactive) | 5.86 µM (inactive) | 6.5 µM (inactive) | 10.2 µM (inactive) | 5.46 µM (inactive) | 8.55 µM (inactive) | 9.02 µM (inactive) | 3.52 µM (inactive) | 1.67 µM (inactive) | 4.61 µM (inactive)
10 | Cc1cc(NS(=O)(=O)c2ccc(NC(=O)c3cccc4c(NNc5ccc(S(N)(=O)=O)cc5)c5ccccc5nc34)cc2)no1 | 34 µM (inactive) | 54.5 µM (inactive) | 49.9 µM (inactive) | 45.9 µM (inactive) | 86.5 µM (inactive) | > 100 µM (inactive) | 64.7 µM (inactive) | 39.6 µM (inactive) | 36.3 µM (inactive) | 33.4 µM (inactive) | 42.4 µM (inactive) | 37.2 µM (inactive) | 60.4 µM (inactive) | 33.2 µM (inactive) | 31 µM (inactive) | 33.4 µM (inactive) | 31.8 µM (inactive) | 43.4 µM (inactive) | 41.5 µM (inactive) | 27.9 µM (inactive)
11 | C=C1C(OC)=C(OC)C(=O)c2[nH]c3c(OC)cc([N+](=O)[O-])cc3c21 | > 100 µM (inactive) | > 100 µM (inactive) | > 100 µM (inactive) | > 100 µM (inactive) | > 100 µM (inactive) | > 100 µM (inactive) | > 100 µM (inactive) | > 100 µM (inactive) | > 100 µM (inactive) | 62.4 µM (inactive) | 85.7 µM (inactive) | > 100 µM (inactive) | > 100 µM (inactive) | > 100 µM (inactive) | > 100 µM (inactive) | > 100 µM (inactive) | > 100 µM (inactive) | > 100 µM (inactive) | 37 µM (inactive) | > 100 µM (inactive)
12 | C1CCC(CC2CCC(NC3=NCCO3)CC2)CC1 (stereo not given) | 18.8 µM (inactive) | 19.4 µM (inactive) | 19.8 µM (inactive) | 15.8 µM (inactive) | 30 µM (inactive) | 19.4 µM (inactive) | 17.9 µM (inactive) | 23.6 µM (inactive) | 20.9 µM (inactive) | 22.1 µM (inactive) | 20.6 µM (inactive) | 21.3 µM (inactive) | 17.3 µM (inactive) | 15.5 µM (inactive) | 17.9 µM (inactive) | 14 µM (inactive) | 20.2 µM (inactive) | 26.1 µM (inactive) | 18.3 µM (inactive) | 26.1 µM (inactive)
13 | Cc1c(-c2cnccn2)ssc1=S [OLTIPRAZ] | 94.2 µM (inactive) | 63.2 µM (inactive) | > 100 µM (inactive) | > 100 µM (inactive) | > 100 µM (inactive) | > 100 µM (inactive) | 88.5 µM (inactive) | > 100 µM (inactive) | 35.9 µM (inactive) | 33.2 µM (inactive) | 47 µM (inactive) | > 100 µM (inactive) | 68.1 µM (inactive) | 54.3 µM (inactive) | 61.9 µM (inactive) | > 100 µM (inactive) | > 100 µM (inactive) | > 100 µM (inactive) | 31.9 µM (inactive) | 60.3 µM (inactive)

From ChEMBL document CHEMBL1201862, “PubChem BioAssay data set” (2004)
